What was measured:
[1] = Compound stability test in human blood; format: in vitro ADME; settings: for Remaining Percentages (%) / half-life at 1 μM: 37° C., 1 μM; for half-life at 1 μM: in vitro half-life in human blood
Protocol: (§1) One (1) mM test compound working solution was prepared in DMSO. One (1) mM propantheline working solution was prepared in acetonitrile, wherein propantheline was used as positive control in this assay.
(§2) Ten (10) μL of each test compound solution and the control compound solution were respectively added into a 96 deep well plate, and 40 μL of acetonitrile:water (V/V=1:1) was added to each well to dilute the 1 mM test compound solution to 200 μM working solution.
(§3) Mouse blood (male CD-1 mouse blood, Pharmaron, Lot# PH-ADME-Mouse-20180329) or human blood (Pharmaron, Lot# PH-ADME-Human-20180329) of 398 μL was added to each well of an incubation plate, and then the incubation plate was pre-warmed at 37° C. for 15 minutes. After the pre-incubation, 2 μL of 200 μM working solution prepared above was spiked to the pre-warmed 398 μL blood to reach a final concentration of 1 μM. The final concentration of DMSO was 0.1% and the final concentration of acetonitrile was 0.2%. The assay was performed in duplicate.
(§4) The incubation plate was incubated at 37° C. water bath with shaking at 50 rpm, and aliquots of 50 μL were taken from each well of the incubation plate at 0, 10, 30, 60, 90, 120 and 180 minutes.
(§5) The reaction was stopped by the addition of 50 μL of pure water. The plate was vortexed for 30 seconds at 1,000 rpm and then added with 300 μL of cold acetonitrile containing internal standards (100 nM aprozolam, 200 nM caffeine, 100 nM tolbutamide).
(§6) All samples were vortexed for 10 minutes, followed by centrifugation at 14,000 rpm for 15 minutes to precipitate proteins. 100 μL of each supernatant was transferred to a new plate, and diluted with ultrapure water according to the LC-MS signal response and peak shape.
(§7) Samples were analyzed by LC-MS/MS.
(§8) • LC system: ACQUITY UPLC® I-Class • MS analysis: Waters XEVO® TQ-D with an ESI interface • Column temperature: 40° C. • Injection volume: 3 μL • Column: Waters XSelect HSS T3 C18, 2.5 μm, 2.1×50 mm column • Mobile phase: 0.1% formic acid in water (A) and 0.1% formic acid in acetonitrile (B)
(§9) • Ion source: Turbo spray • Ionization model: ESI • Scan type: MRM • Cone gas: 150 L/h • Desolvation gas: 1000 L/h • Desolvation temperature: 500° C. • Capillary voltage: 3.00 KV
(§10) All calculations were carried out using Microsoft Excel. Peak area ratios were determined from extracted ion chromatograms, and percent compounds remaining at each time point were calculated by the following equation:
(§11) Remaining Percentaget min(%)=Peak Area Ratiot min/Peak Area Ratio0 min×100, where Peak Area Ratiot min referred to peak area ratio of control and test compounds at t min; and Peak Area Ratio0 min referred to peak area ratio of control and test compounds at zero time point. The in vitro half-life (in vitro t1/2) was determined from the slope value: In vitro T1/2=−(0.693/k).

[2] = Compound stability test in mouse blood; format: in vitro ADME; settings: for half-life at 1 μM: male, CD-1, in vitro half-life in mouse blood; for half-life at 1 μM / Remaining Percentages (%): 37° C., 1 μM
Protocol: as §1, §2, §3, §4, §5, §6, §7, §8, §9, §10, §11

[3] = Pharmacokinetic study of itraconazole release in mice after intravenous and oral dosing of Compound 3; format: in vivo, mouse; settings: for Plasma itraconazole Concentration (ng/mL): mice, individual mice
Protocol: Compound 3 was dissolved in DMSO:PEG400:water (1:4:5, v/v/v) with a final concentration of 0.2 mg/ml or 0.5 mg/ml. The 0.2 mg/ml solution was used for intravenous dosing, and the 0.5 mg/ml solution was for oral dosing.
Three male C57BL/6 mice were intravenously administered with Compound 3 at a dose of 1.0 mg/kg, and blood samples were collected at 2 min, 15 min, 30 min, 1 h, 2 h, 4 h, 6 h, 8 h, and 24 h post administration.
Three male C57BL/6 mice were orally given Compound 3 at a dose of 5.0 mg/kg, and blood samples were collected at 15 min, 30 min, 1 h, 2 h, 4 h, 6 h, 8 h, and 24 h post administration.
And dose levels were corrected in PK parameter calculation due to the salt factor.
The blood samples were subject to LC-MS/MS analysis, to monitor the plasma concentrations of both the parent compound and Itraconazole.
Column: Waters XSELECT HSS T3 2.5 μm 2.1×50 mm
Mobile phase: 5% Acetonitrile in Water (0.1% Formic acid) (A) and 95% Acetonitrile in Water (0.1% Formic acid) (B)
Gradient: flow rate at 0.6 mL/min
AB Sciex Triple Quad 5500 LC/MS/MS instrument (Serial NO. BB212611510)
Quantification: Internal Standard Method

| Remaining Percentages (%) ([1]; human blood, 0 min) | Remaining Percentages (%) ([1]; human blood, 10 min) | Remaining Percentages (%) ([1]; human blood, 30 min) | Remaining Percentages (%) ([1]; human blood, 60 min) | Remaining Percentages (%) ([1]; human blood, 90 min) | Remaining Percentages (%) ([1]; human blood, 120 min) | Remaining Percentages (%) ([1]; human blood, 180 min) | half-life at 1 μM [1] [min] | half-life at 1 μM [2] [min] | Remaining Percentages (%) ([2]; mouse blood, 0 min) | Remaining Percentages (%) ([2]; mouse blood, 10 min) | Remaining Percentages (%) ([2]; mouse blood, 30 min) | Remaining Percentages (%) ([2]; mouse blood, 60 min) | Remaining Percentages (%) ([2]; mouse blood, 90 min) | Remaining Percentages (%) ([2]; mouse blood, 120 min) | Remaining Percentages (%) ([2]; mouse blood, 180 min) | SMILES | further results |
| --- | --- | --- | --- | --- | --- | --- | --- | --- | --- | --- | --- | --- | --- | --- | --- | --- | --- |
| 100 | 68.5 | 32.6% | 12.3% | 7.80% | 2.02% | 0.36% | 23.1 | 1.77 | 100 | 2.01 | 0.00% | 0.00% | 0.00% | 0.00% | 0.00% | CCC(C)n1ncn(-c2ccc(N3CCN(c4ccc(OCC5COC(Cn6c[n+](C)cn6)(c6ccc(Cl)cc6Cl)O5)cc4)CC3)cc2)c1=O.[Cl-] (centres unmarked) [Compound 1] | – |
| 100 | 25.3 | BLOD | BLOD | BLOD | BLOD | BLOD | 5.07 | 7.12 | 100 | 37.3 | BLOD | BLOD | BLOD | BLOD | BLOD | CCCOC(=O)OC[n+]1cnn(CC2(c3ccc(Cl)cc3Cl)OCC(COc3ccc(N4CCN(c5ccc(-n6cnn(C(C)CC)c6=O)cc5)CC4)cc3)O2)c1.[Cl-] (centres unmarked) [Compound 7] | – |
| 100 | 85.5 | 55.8% | 29.2% | 15.2% | 6.83% | 1.84% | 32.8 | 38.8 | 100 | 88.8 | 62.4% | 34.8% | 20.4% | 12.3% | 4.44% | CC(C)[N+](C)(CCOC(=O)C1c2ccccc2Oc2ccccc21)C(C)C [Propantheline, propantheline, reference compound] | – |
| 100 | 94.0 | 82.3% | 67.5% | 61.5% | 55.3% | 34.3% | 123 | 59 | 100 | 88.1 | 67.1% | 46.3% | 30.3% | 24.4% | 12.0% | CCC(C)n1ncn(-c2ccc(N3CCN(c4ccc(OCC5COC(Cn6c[n+](COC(C)=O)cn6)(c6ccc(Cl)cc6Cl)O5)cc4)CC3)cc2)c1=O.[Cl-] (centres unmarked) [Compound 3] | stability in blood, in words ([1]; human blood): more stable among exemplary compounds; stability in blood, in words ([2]; mouse blood): more stable among exemplary compounds; abnormal clinical symptoms during the test ([3]; male C57BL/6 mice, 1.0 mg/kg intravenous or 5.0 mg/kg oral Compound 3): No mice were observed with abnormal clinical symptoms; Plasma itraconazole Concentration (ng/mL) ([3]; IV Dose 0.860 mg/kg Compound 3, 8 h, 0.86 mg/kg): BLOQ; Plasma itraconazole Concentration (ng/mL) ([3]; IV Dose 0.860 mg/kg Compound 3, 24 h): BLOQ; Plasma itraconazole Concentration (ng/mL) ([3]; PO Dose 4.30 mg/kg Compound 3, 24 h): BLOQ |
| 100 | 60.3 | 26.1% | 8.47% | 3.59% | 1.66% | 0.30% | 15.6 | 11.8 | 100 | 40.1 | 16.2% | 3.79% | 0.90% | 0.175% | 0.00% | CCC(C)n1ncn(-c2ccc(N3CCN(c4ccc(OCC5COC(Cn6c[n+](CC)cn6)(c6ccc(Cl)cc6Cl)O5)cc4)CC3)cc2)c1=O.[Cl-] (centres unmarked) [Compound 2] | – |
| 100 | 31.6 | 1.40% | 0.785% | 0.616% | BLOD | BLOD | 6.03 | 21.9 | 100 | 71.2 | 40.2% | 14.8% | 7.0% | 3.99% | 1.03% | CCC(C)n1ncn(-c2ccc(N3CCN(c4ccc(OCC5COC(Cn6c[n+](COC(=O)OC(C)C)cn6)(c6ccc(Cl)cc6Cl)O5)cc4)CC3)cc2)c1=O.[Cl-] (centres unmarked) [Compound 8] | – |
| 100 | 61.0 | 30.2% | 8.93% | 4.67% | BLOD | BLOD | 17.7 | 6.03 | 100 | 31.5 | 4.04% | BLOD | BLOD | BLOD | BLOD | CCC(C)n1ncn(-c2ccc(N3CCN(c4ccc(OCC5COC(Cn6c[n+](COC(=O)C(C)C)cn6)(c6ccc(Cl)cc6Cl)O5)cc4)CC3)cc2)c1=O.[Cl-] (centres unmarked) [Compound 4] | – |
| 100 | 69.4 | 30.4% | 9.76% | 5.50% | 2.08% | BLOD | 18.1 | 4.84 | 100 | 23.9 | 1.48% | BLOD | BLOD | BLOD | BLOD | CCC(C)n1ncn(-c2ccc(N3CCN(c4ccc(OCC5COC(Cn6c[n+](COC(=O)C(C)(C)C)cn6)(c6ccc(Cl)cc6Cl)O5)cc4)CC3)cc2)c1=O.[Cl-] (centres unmarked) [Compound 5] | – |

Source: patent publication US20210346506A1, “PRODRUG OF ITRACONAZOLE AND USES THEREOF” (priority 2020, published 2021)
